Test results reported in ChEMBL document CHEMBL1938244, “Synthesis, anticancer activity and apoptosis inducing ability of bisindole linked pyrrolo[2,1-c][1,4]benzodiazepine conjugates” (2012).
Each block holds one compound with its values, some of them ahead of it. The source made the active and inactive calls. No cut-off for these calls is given here.

What was measured:
[1] = target: Tubulin (Homo sapiens) (UniProt P68371+Q9H4B7+P0DPH7+P68366+Q13509+Q71U36+P04350+Q3ZCM7+P07437+P68363+Q9BQE3+Q6PEY2+Q13885+Q9BVA1+Q9BUF5); assay: Inhibition of tubulin polymerization in human MCF7 cells at 2 uM after 24 hrs by FITC-conjugated immunostaining assay; type: cell-based
[2] = tested on: MCF7; assay: Inhibition of HDAC1 protein expression in human MCF7 cells at 2 uM after 24 hrs by Western blotting; type: functional, cell-based
[3] = tested on: MCF7; assay: Inhibition of HDAC2 protein expression in human MCF7 cells at 2 uM after 24 hrs by Western blotting; type: functional, cell-based
[4] = tested on: MCF7; assay: Inhibition of HDAC3 protein expression in human MCF7 cells at 2 uM after 24 hrs by Western blotting; type: functional, cell-based
[5] = tested on: MCF7; assay: Inhibition of HDAC8 protein expression in human MCF7 cells at 2 uM after 24 hrs by Western blotting; type: functional, cell-based
[6] = tested on: MCF7; assay: Increase in p21 protein level in human MCF7 cells at 2 uM after 24 hrs by Western blotting; type: functional, cell-based
[7] = tested on: MCF7; assay: Induction of apoptosis in human MCF7 cells assessed as PARP-cleavage at 8 uM after 24 hrs by Western blot analysis; type: functional, cell-based
[8] = tested on: MCF7; assay: Induction of apoptosis in human MCF7 cells assessed as caspase-7 activation at 8 uM after 24 hrs by Western blot analysis; type: functional, cell-based
[9] = tested on: MCF7; assay: Anticancer activity against human MCF7 cells by SRB method; type: functional
[10] = tested on: A2780; assay: Anticancer activity against human A2780 cells by SRB method; type: functional
[11] = tested on: COLO 205; assay: Anticancer activity against human COLO205 cells by SRB method; type: functional
[12] = tested on: SiHa; assay: Anticancer activity against human SiHa cells by SRB method; type: functional
[13] = tested on: KB; assay: Anticancer activity against human KB cells by SRB method; type: functional
[14] = tested on: MCF7; assay: Anticancer activity against human MCF7 cells assessed as cell death at 2 uM after 24 hrs by MTT assay; type: functional
[15] = tested on: MCF7; assay: Induction of cell cycle arrest in human MCF7 cells assessed as accumulation of cells in G0 phase at 2 uM after 24 hrs by flow cytometry relative to untreated control; type: functional
[16] = tested on: MCF7; assay: Induction of cell cycle arrest in human MCF7 cells assessed as accumulation of cells in G1 phase at 2 uM after 24 hrs by flow cytometry relative to untreated control; type: functional
[17] = tested on: MCF7; assay: Induction of cell cycle arrest in human MCF7 cells assessed as accumulation of cells in S phase at 2 uM after 24 hrs by flow cytometry relative to untreated control; type: functional
[18] = tested on: MCF7; assay: Induction of cell cycle arrest in human MCF7 cells assessed as accumulation of cells in G2/M phase at 2 uM after 24 hrs by flow cytometry relative to untreated control; type: functional
[19] = tested on: MCF7; assay: Induction of cell cycle arrest in human MCF7 cells assessed as accumulation of cells in G0 phase at 4 uM after 24 hrs by flow cytometry relative to untreated control; type: functional
[20] = tested on: MCF7; assay: Induction of cell cycle arrest in human MCF7 cells assessed as accumulation of cells in G1 phase at 4 uM after 24 hrs by flow cytometry relative to untreated control; type: functional
[21] = tested on: MCF7; assay: Induction of cell cycle arrest in human MCF7 cells assessed as accumulation of cells in S phase at 4 uM after 24 hrs by flow cytometry relative to untreated control; type: functional
[22] = tested on: MCF7; assay: Induction of cell cycle arrest in human MCF7 cells assessed as accumulation of cells in G2/M phase at 4 uM after 24 hrs by flow cytometry relative to untreated control; type: functional
[23] = tested on: MCF7; assay: Induction of cell cycle arrest in human MCF7 cells assessed as accumulation of cells in G0 phase at 8 uM after 24 hrs by flow cytometry relative to untreated control; type: functional
[24] = tested on: MCF7; assay: Induction of cell cycle arrest in human MCF7 cells assessed as accumulation of cells in G1 phase at 8 uM after 24 hrs by flow cytometry relative to untreated control; type: functional
[25] = tested on: MCF7; assay: Induction of cell cycle arrest in human MCF7 cells assessed as accumulation of cells in S phase at 8 uM after 24 hrs by flow cytometry relative to untreated control; type: functional
[26] = tested on: MCF7; assay: Induction of cell cycle arrest in human MCF7 cells assessed as accumulation of cells in G2/M phase at 8 uM after 24 hrs by flow cytometry relative to untreated control; type: functional
[27] = tested on: MCF7; assay: Induction of cell cycle arrest in human MCF7 cells assessed as accumulation of cells in G0 phase at 2 uM after 24 hrs by flow cytometry (reference value: 2.9%); type: functional
[28] = tested on: MCF7; assay: Induction of cell cycle arrest in human MCF7 cells assessed as accumulation of cells in G1 phase at 2 uM after 24 hrs by flow cytometry (reference value: 46%); type: functional
[29] = tested on: MCF7; assay: Induction of cell cycle arrest in human MCF7 cells assessed as accumulation of cells in S phase at 2 uM after 24 hrs by flow cytometry (reference value: 14.87%); type: functional
[30] = tested on: MCF7; assay: Induction of cell cycle arrest in human MCF7 cells assessed as accumulation of cells in G2/M phase at 2 uM after 24 hrs by flow cytometry (reference value: 36.23%); type: functional
[31] = tested on: MCF7; assay: Induction of cell cycle arrest in human MCF7 cells assessed as accumulation of cells in G0 phase at 4 uM after 24 hrs by flow cytometry (reference value: 3.22%); type: functional
[32] = tested on: MCF7; assay: Induction of cell cycle arrest in human MCF7 cells assessed as accumulation of cells in G1 phase at 4 uM after 24 hrs by flow cytometry (reference value: 65.58%); type: functional
[33] = tested on: MCF7; assay: Induction of cell cycle arrest in human MCF7 cells assessed as accumulation of cells in S phase at 4 uM after 24 hrs by flow cytometry (reference value: 5.55%); type: functional
[34] = tested on: MCF7; assay: Induction of cell cycle arrest in human MCF7 cells assessed as accumulation of cells in G2/M phase at 4 uM after 24 hrs by flow cytometry (reference value: 25.65%); type: functional
[35] = tested on: MCF7; assay: Induction of cell cycle arrest in human MCF7 cells assessed as accumulation of cells in G0 phase at 8 uM after 24 hrs by flow cytometry (reference value: 3.22%); type: functional
[36] = tested on: MCF7; assay: Induction of cell cycle arrest in human MCF7 cells assessed as accumulation of cells in G1 phase at 8 uM after 24 hrs by flow cytometry (reference value: 65.58%); type: functional
[37] = tested on: MCF7; assay: Induction of cell cycle arrest in human MCF7 cells assessed as accumulation of cells in S phase at 8 uM after 24 hrs by flow cytometry (reference value: 5.55%); type: functional
[38] = tested on: MCF7; assay: Induction of cell cycle arrest in human MCF7 cells assessed as accumulation of cells in G2/M phase at 8 uM after 24 hrs by flow cytometry (reference value: 25.65%); type: functional
[39] = tested on: ZR-75-1; assay: Anticancer activity against human ZR-75-1 cells by SRB method; type: functional
[40] = tested on: A549; assay: Anticancer activity against human A549 cells by SRB method; type: functional

SMILES: COc1cc2c(cc1OCCCCCOc1cccc(C(c3c[nH]c4ccccc34)c3c[nH]c4ccccc34)c1)N=C[C@@H]1CCCN1C2=O
inhibition [1]: Active
inhibition [2]: Active
inhibition [3]: Active
inhibition [4]: Active
inhibition [5]: Active
Activity [6]: Active
Activity [7]: Active
Activity [8]: Active
GI50 [9]: 190 nM
GI50 [10]: 180 nM
GI50 [11]: 0.16 µM
GI50 [12]: 2200 nM
GI50 [13]: 2300 nM
Activity [14]: 50%
Activity [15]: 2.98%
Activity [16]: 38.86%
Activity [17]: 15.42%
Activity [18]: 42.67%
Activity [19]: 10.7%
Activity [20]: 70.29%
Activity [21]: 8.26%
Activity [22]: 10.74%
Activity [23]: 24.81%
Activity [24]: 60.92%
Activity [25]: 5.26%
Activity [26]: 8.99%
Activity [27]: 3.47%
Activity [28]: 39.36%
Activity [29]: 14.56%
Activity [30]: 42.61%
Activity [31]: 10.4%
Activity [32]: 71.85%
Activity [33]: 8.67%
Activity [34]: 9.08%
Activity [35]: 24.25%
Activity [36]: 61.55%
Activity [37]: 4.82%
Activity [38]: 9.38%

SMILES: Oc1cccc(C(c2c[nH]c3ccccc23)c2c[nH]c3ccccc23)c1
inhibition [1]: Active
inhibition [2]: Active
inhibition [3]: Active
inhibition [4]: Active
inhibition [5]: Active
Activity [7]: Active
Activity [8]: Active
Activity [14]: Active
Activity [15]: 2.8%
Activity [16]: 51.23%
Activity [17]: 9.86%
Activity [18]: 36.03%
Activity [19]: 3.63%
Activity [20]: 50.56%
Activity [21]: 9.41%
Activity [22]: 36.3%
Activity [23]: 6.03%
Activity [24]: 45.99%
Activity [25]: 10.02%
Activity [26]: 37.97%
Activity [27]: 2.9%
Activity [28]: 50%
Activity [29]: 10.1%
Activity [30]: 37%
Activity [31]: 4%
Activity [32]: 50.68%
Activity [33]: 9.24%
Activity [34]: 36.08%
Activity [35]: 6%
Activity [36]: 46.98%
Activity [37]: 9.08%
Activity [38]: 37.93%

SMILES: COc1cc2c(cc1OCCCCOc1ccc(C(c3c[nH]c4ccccc34)c3c[nH]c4ccccc34)cc1)N=C[C@@H]1CCCN1C2=O
GI50 [9]: 180 nM
GI50 [39]: 26.5 µM
GI50 [10]: 2070 nM
GI50 [11]: 24 µM
GI50 [12]: 2490 nM
GI50 [13]: 2300 nM

SMILES: COc1cc2c(cc1O)N=C[C@@H]1CCCN1C2=O
inhibition [1]: inactive
inhibition [2]: Active
inhibition [3]: Active
inhibition [4]: Active
inhibition [5]: Active
Activity [7]: Active
Activity [8]: Active
GI50 [9]: 170 nM
GI50 [10]: 140 nM
GI50 [11]: 0.11 µM
GI50 [12]: 160 nM
GI50 [40]: 0.16 µM
GI50 [13]: 170 nM
Activity [14]: Active
Activity [15]: 3.14%
Activity [16]: 55.11%
Activity [17]: 8.02%
Activity [18]: 33.79%
Activity [19]: 9.27%
Activity [20]: 70.84%
Activity [21]: 8.56%
Activity [22]: 11.31%
Activity [23]: 29.68%
Activity [24]: 57.74%
Activity [25]: 4.53%
Activity [26]: 8.05%
Activity [27]: 3.72%
Activity [28]: 53.62%
Activity [29]: 8.26%
Activity [30]: 34.4%
Activity [31]: 9.56%
Activity [32]: 69.54%
Activity [33]: 9.57%
Activity [34]: 11.33%
Activity [35]: 30.04%
Activity [36]: 58.22%
Activity [37]: 4.59%
Activity [38]: 7.15%

SMILES: Oc1ccc(C(c2c[nH]c3ccccc23)c2c[nH]c3ccccc23)cc1
inhibition [1]: Active
inhibition [2]: Active
inhibition [3]: Active
inhibition [4]: Active
inhibition [5]: Active
Activity [7]: Active
Activity [8]: Active
Activity [14]: Active
Activity [15]: 3.16%
Activity [16]: 53.85%
Activity [17]: 9.26%
Activity [18]: 33.7%
Activity [19]: 5.01%
Activity [20]: 49.65%
Activity [21]: 9.78%
Activity [22]: 35.56%
Activity [23]: 7.05%
Activity [24]: 46.19%
Activity [25]: 8.99%
Activity [26]: 37.97%
Activity [27]: 3%
Activity [28]: 54%
Activity [29]: 9%
Activity [30]: 34%
Activity [31]: 5%
Activity [32]: 50.97%
Activity [33]: 9.34%
Activity [34]: 34.69%
Activity [35]: 7%
Activity [36]: 47.59%
Activity [37]: 8.97%
Activity [38]: 36.44%

More lines, main results first:

GI50 [9]: 2010 nM
GI50 [10]: 27000 nM
GI50 [11]: 28.5 µM
SMILES: COc1cc2c(cc1OCCCCOc1cccc(C(c3c[nH]c4ccccc34)c3c[nH]c4ccccc34)c1)N=C[C@@H]1CCCN1C2=O

GI50 [9]: 2010 nM
GI50 [10]: 2290 nM
GI50 [11]: 2.3 µM
GI50 [13]: 30100 nM
SMILES: COc1cc2c(cc1OCCCCCCOc1cccc(C(c3c[nH]c4ccccc34)c3c[nH]c4ccccc34)c1)N=C[C@@H]1CCCN1C2=O
GI50 [12]: 30800 nM

GI50 [9]: < 100 nM
GI50 [10]: < 100 nM
GI50 [11]: 14.7 µM
GI50 [40]: 13 µM
GI50 [13]: 160 nM
SMILES: COc1cccc2c1C(=O)c1c(O)c3c(c(O)c1C2=O)C[C@@](O)(C(=O)CO)C[C@@H]3O[C@H]1C[C@H](N)[C@H](O)[C@H](C)O1 [DOXORUBICIN]
GI50 [39]: < 0.1 µM
GI50 [12]: 1900 nM

GI50 [9]: 140 nM
GI50 [10]: 2460 nM
GI50 [40]: 29 µM
SMILES: COc1cc2c(cc1OCCCCCCOc1ccc(C(c3c[nH]c4ccccc34)c3c[nH]c4ccccc34)cc1)N=C[C@@H]1CCCN1C2=O
